One molecule from US7449478B2, “Indole compounds” (National Health Research Institutes, priority 2003, dated 2008) can be followed below.

The test system of the assay is PPAR. As to the kind of experiment: PPAR agonist activity / binding to PPAR, tetraethylthiuram disulfide alone or combined. The conditions noted are these: tetraethylthiuram disulfide alone.

For `CCN(CC)C(=S)SSC(=S)N(CC)CC` [tetraethylthiuram disulfide], the PPAR agonist activity result is recorded as “poor PPAR agonist”.
